# Data taken from US20240033272A1, “USE OF C[…] THE TREATMENT OF SEIZURES ASSOCIATED WITH HERPES SIMPLEX VIRUS” (GW Research Limited, priority 2020, published 2024).
# Tested on: patients diagnosed with herpes simplex virus (seizures associated with herpes simplex virus)
# Assay: Open label, expanded-access program: seizure frequency recorded by caregivers in a diary, change relative to baseline
# Format: in vivo, human
# Parameters: Reduction in myoclonic seizures over the treatment period / Reduction in absence seizures over the treatment period / Reduction in focal seizures with impairment over the treatment period / Reduction in tonic-clonic seizures over the treatment period / Reduction in atonic seizures over the treatment period / Reduction in tonic seizures over the treatment period: concentration or dose not given beside the values; Seizure frequency, tonic-clonic / Seizure frequency, myoclonic / Seizure frequency, absence / Seizure frequency, focal with impairment / Seizure frequency, tonic / Seizure frequency, focal without impairment / Seizure frequency, atonic: unit not given here
# Conditions: for Seizure frequency, atonic: baseline 20.0
# Description: Subjects were required to be on one or more AEDs at stable doses for a minimum of two weeks prior to baseline and to have stable vagus nerve stimulation (VNS) settings and ketogenic diet ratios for a minimum of four weeks prior to baseline.
# Modifications were made to concomitant AEDs as per clinical indication.
# Seizure frequency, intensity, and duration were recorded by caregivers in a diary during a baseline period of at least 28 days. Changes in seizure frequency relative to baseline were calculated after at least 2 weeks and at defined timepoints of treatment.
# Patients may be defined as responders if they had more than 50% reduction in seizure frequency compared to baseline. The percent change in seizure frequency was calculated as follows: […]
# The percent change of seizure frequency may be calculated for any time interval where seizure number has been recorded. For the purpose of this example the percent change of seizure frequency for the end of the treatment period was calculated as follows: […]
# [1] = Patient 1, treated for 48 weeks, vs baseline
# [2] = Patient 2, 4 weeks, CBD 25.0 mg/kg/day, baseline 8.0
# [3] = Patient 2, 8 weeks, CBD 25.0 mg/kg/day, baseline 8.0
# [4] = Patient 2, 24 weeks, CBD 25.0 mg/kg/day, baseline 8.0
# [5] = Patient 3, treated for 108 weeks, vs baseline
structure (smiles),measurement,setting,value
"C=C(C)[C@@H]1CCC(C)=C[C@H]1c1c(O)cc(CCCCC)cc1O [CBD, cannabidiol]","Time of treatment after which patient became completely seizure free, focal seizures with impairment",Patient 1,24 weeks
same,"Time of treatment after which patient became completely seizure free, myoclonic seizures",Patient 1,8 weeks
same,"Seizure frequency, tonic-clonic","Patient 1, 4 weeks, CBD 5.0 mg/kg/day, baseline 0.0",14.0
same,"Seizure frequency, myoclonic","Patient 1, 4 weeks, CBD 5.0 mg/kg/day, baseline 75.0",4.0
same,"Seizure frequency, focal with impairment","Patient 1, 4 weeks, CBD 5.0 mg/kg/day, baseline 100.0",14.0
same,"Seizure frequency, absence","Patient 1, 4 weeks, CBD 5.0 mg/kg/day, baseline 2500.0",800.0
same,"Seizure frequency, tonic-clonic","Patient 1, 8 weeks, CBD 10.0 mg/kg/day, baseline 0.0",20.0
same,"Seizure frequency, myoclonic","Patient 1, 8 weeks, CBD 10.0 mg/kg/day, baseline 75.0",0.0
same,"Seizure frequency, focal with impairment","Patient 1, 8 weeks, CBD 10.0 mg/kg/day, baseline 100.0",12.0
same,"Seizure frequency, absence","Patient 1, 8 weeks, CBD 10.0 mg/kg/day, baseline 2500.0",1390.0
same,"Seizure frequency, tonic-clonic","Patient 1, 16 weeks, CBD 15.0 mg/kg/day, baseline 0.0",20.0
same,"Seizure frequency, myoclonic","Patient 1, 16 weeks, CBD 15.0 mg/kg/day, baseline 75.0",0.0
same,"Seizure frequency, focal with impairment","Patient 1, 16 weeks, CBD 15.0 mg/kg/day, baseline 100.0",7.0
same,"Seizure frequency, absence","Patient 1, 16 weeks, CBD 15.0 mg/kg/day, baseline 2500.0",250.0
same,"Seizure frequency, tonic-clonic","Patient 1, 24 weeks, CBD 20.0 mg/kg/day, baseline 0.0",79.6
same,"Seizure frequency, myoclonic","Patient 1, 24 weeks, CBD 20.0 mg/kg/day, baseline 75.0",0.0
same,"Seizure frequency, focal with impairment","Patient 1, 24 weeks, CBD 20.0 mg/kg/day, baseline 100.0",0.0
same,"Seizure frequency, absence","Patient 1, 24 weeks, CBD 20.0 mg/kg/day, baseline 2500.0",398.0
same,"Seizure frequency, tonic-clonic","Patient 1, 36 weeks, CBD 25.0 mg/kg/day, baseline 0.0",31.3
same,"Seizure frequency, myoclonic","Patient 1, 36 weeks, CBD 25.0 mg/kg/day, baseline 75.0",0.0
same,"Seizure frequency, focal with impairment","Patient 1, 36 weeks, CBD 25.0 mg/kg/day, baseline 100.0",0.0
same,"Seizure frequency, absence","Patient 1, 36 weeks, CBD 25.0 mg/kg/day, baseline 2500.0",466.6
same,"Seizure frequency, tonic-clonic","Patient 1, 48 weeks, CBD 25.0 mg/kg/day, baseline 0.0",16.0
same,"Seizure frequency, myoclonic","Patient 1, 48 weeks, CBD 25.0 mg/kg/day, baseline 75.0",0.0
same,"Seizure frequency, focal with impairment","Patient 1, 48 weeks, CBD 25.0 mg/kg/day, baseline 100.0",0.0
same,"Seizure frequency, absence","Patient 1, 48 weeks, CBD 25.0 mg/kg/day, baseline 2500.0",231.7
same,Reduction in absence seizures over the treatment period,[1],90.7%
same,Reduction in focal seizures with impairment over the treatment period,[1],100%
same,Reduction in myoclonic seizures over the treatment period,[1],100%
same,"Seizure frequency, tonic-clonic","Patient 2, 4 weeks, CBD 25.0 mg/kg/day, baseline 1.0",0.0
same,"Seizure frequency, absence",[2],6.0
same,"Seizure frequency, focal without impairment",[2],8.0
same,"Seizure frequency, tonic","Patient 2, 4 weeks, CBD 25.0 mg/kg/day, baseline 32.0",44.0
same,"Seizure frequency, tonic-clonic","Patient 2, 8 weeks, CBD 25.0 mg/kg/day, baseline 1.0",0.0
same,"Seizure frequency, absence",[3],0.0
same,"Seizure frequency, focal without impairment",[3],0.0
same,"Seizure frequency, tonic","Patient 2, 8 weeks, CBD 25.0 mg/kg/day, baseline 32.0",24.0
same,"Seizure frequency, tonic-clonic","Patient 2, 24 weeks, CBD 25.0 mg/kg/day, baseline 1.0",0.5
same,"Seizure frequency, absence",[4],12.0
same,"Seizure frequency, focal without impairment",[4],17.0
same,"Seizure frequency, tonic","Patient 2, 24 weeks, CBD 25.0 mg/kg/day, baseline 32.0",56.0
same,Reduction in tonic-clonic seizures over the treatment period,"Patient 2, treated for 24 weeks, vs baseline",50%
same,"Seizure frequency, tonic-clonic","Patient 3, 2 weeks, CBD 5.0 mg/kg/day, baseline 6.0",8.0
same,"Seizure frequency, myoclonic","Patient 3, 2 weeks, CBD 5.0 mg/kg/day, baseline 32.0",6.0
same,"Seizure frequency, tonic-clonic","Patient 3, 4 weeks, CBD 10.0 mg/kg/day, baseline 6.0",5.3
same,"Seizure frequency, myoclonic","Patient 3, 4 weeks, CBD 10.0 mg/kg/day, baseline 32.0",9.3
same,"Seizure frequency, tonic-clonic","Patient 3, 8 weeks, CBD 20.0 mg/kg/day, baseline 6.0",6.0
same,"Seizure frequency, myoclonic","Patient 3, 8 weeks, CBD 20.0 mg/kg/day, baseline 32.0",16.0
same,"Seizure frequency, tonic-clonic","Patient 3, 16 weeks, CBD 25.0 mg/kg/day, baseline 6.0",11.0
same,"Seizure frequency, myoclonic","Patient 3, 16 weeks, CBD 25.0 mg/kg/day, baseline 32.0",4.0
same,"Seizure frequency, tonic-clonic","Patient 3, 36 weeks, CBD 30.0 mg/kg/day, baseline 6.0",2.6
same,"Seizure frequency, myoclonic","Patient 3, 36 weeks, CBD 30.0 mg/kg/day, baseline 32.0",9.3
same,"Seizure frequency, tonic-clonic","Patient 3, 48 weeks, CBD 35.0 mg/kg/day, baseline 6.0",7.7
same,"Seizure frequency, myoclonic","Patient 3, 48 weeks, CBD 35.0 mg/kg/day, baseline 32.0",18.4
same,"Seizure frequency, tonic-clonic","Patient 3, 60 weeks, CBD 35.0 mg/kg/day, baseline 6.0",6.6
same,"Seizure frequency, myoclonic","Patient 3, 60 weeks, CBD 35.0 mg/kg/day, baseline 32.0",19.4
same,"Seizure frequency, tonic-clonic","Patient 3, 72 weeks, CBD 30.0 mg/kg/day, baseline 6.0",3.4
same,"Seizure frequency, myoclonic","Patient 3, 72 weeks, CBD 30.0 mg/kg/day, baseline 32.0",9.7
same,"Seizure frequency, tonic-clonic","Patient 3, 96 weeks, CBD 30.0 mg/kg/day, baseline 6.0",1.0
same,"Seizure frequency, myoclonic","Patient 3, 96 weeks, CBD 30.0 mg/kg/day, baseline 32.0",13.8
same,"Seizure frequency, tonic-clonic","Patient 3, 108 weeks, CBD 30.0 mg/kg/day, baseline 6.0",0.9
same,"Seizure frequency, myoclonic","Patient 3, 108 weeks, CBD 30.0 mg/kg/day, baseline 32.0",13.8
same,Reduction in myoclonic seizures over the treatment period,[5],56.9%
same,Reduction in tonic-clonic seizures over the treatment period,[5],85%
same,"Seizure frequency, tonic-clonic","Patient 4, 2 weeks, CBD 5.0 mg/kg/day, baseline 10.0",2.0
same,"Seizure frequency, focal with impairment","Patient 4, 2 weeks, CBD 5.0 mg/kg/day, baseline 14.0",4.0
same,"Seizure frequency, atonic","Patient 4, 2 weeks, CBD 5.0 mg/kg/day",0.0
same,"Seizure frequency, tonic-clonic","Patient 4, 4 weeks, CBD 10.0 mg/kg/day, baseline 10.0",2.0
same,"Seizure frequency, focal with impairment","Patient 4, 4 weeks, CBD 10.0 mg/kg/day, baseline 14.0",2.0
same,"Seizure frequency, atonic","Patient 4, 4 weeks, CBD 10.0 mg/kg/day",1.0
same,"Seizure frequency, tonic-clonic","Patient 4, 8 weeks, CBD 20.0 mg/kg/day, baseline 10.0",0.0
same,"Seizure frequency, focal with impairment","Patient 4, 8 weeks, CBD 20.0 mg/kg/day, baseline 14.0",0.0
same,"Seizure frequency, atonic","Patient 4, 8 weeks, CBD 20.0 mg/kg/day",0.0
same,"Seizure frequency, tonic-clonic","Patient 4, 12 weeks, CBD 20.0 mg/kg/day, baseline 10.0",0.0
same,"Seizure frequency, focal with impairment","Patient 4, 12 weeks, CBD 20.0 mg/kg/day, baseline 14.0",0.0
same,"Seizure frequency, atonic","Patient 4, 12 weeks, CBD 20.0 mg/kg/day",5.0
